In brackets after ≈: the same amount, converted by molar mass.
Tests used:
Type in all cases: cell-based, E. coli
CFT073 imp4213 = experiment: SDS fractionation (PAP and non-PAP) of Lpp and Pal; conditions: 0.5× MIC, 60 min, PAP fraction
Method: Purification of PGN-associated proteins (PAP) was performed according to published methods ([17], [40], [41]) with some modifications. Briefly, bacteria were harvested in mid-exponential phase for treatment and then subjected to PAP extraction by resuspending the cell pellets from an OD (A600) of 10 in 6 ml of PAP extraction buffer containing 2% (wt/vol) SDS in 100 mM Tris-HCl (pH 8.0) with 100 mM NaCl, 10% glycerol, and cOmplete, mini, EDTA-free protease inhibitor cocktail (Sigma-Aldrich). After 60 min at RT, the extraction was subjected to centrifugation at 100,000 × g for 60 min at 22°C, and the pellet, containing PGN and associated proteins, was washed once with the same PAP extraction buffer with centrifugation at 100,000 × g for 30 min and resuspended in 200 μl of PAP extraction buffer (referred to as the SDS-insoluble on PAP fraction). The supernatant containing the SDS-soluble fraction was aliquoted and frozen (referred to as non-PAP fraction). Both fractions were treated with equal volumes of BugBuster buffer prior to the addition of sample buffer for Western immunoblotting as described above. It should be noted that the final PAP fractions were ∼30-fold more concentrated than the non-PAP fractions.

BW25113 cells, lspA gRNA = experiment: CRISPRi knockdown sensitization, lspA gRNA; conditions: 2 μM G2824, 0.05 μM globomycin or 0.016 μM ciprofloxacin; OD600 relative to untreated, versus scr or folA gRNA
Text: The two-plasmid bacterial CRISPRi system pdCas9-bacteria_GNE and PGNRNA-bacteria_GNE are based on the AddGene plasmids 44249 and 44251 ([73]), respectively. The plasmid was synthesized in smaller DNA fragments (500 bp to 3 kb) (IDT gBlocks) and assembled by Gibson assembly (NEB) according to the manufacturer’s protocols. Plasmids were confirmed by sequencing (ELIM Bio). gRNAs were designed to target the 5′ end of the gene on the nontemplate strand using Benchling CRISPR software ([74]). gRNAs were cloned into PGNRNA-bacteria using Gibson assembly (NEB) according to the manufacturer’s protocols and sequence confirmed (ELIM Bio).
Bacterial cultures were grown overnight on LB agar supplemented with carbenicillin (50 μg/ml) and chloramphenicol (12.5 μg/ml) to maintain both plasmids, pdCas9-bacteria and PGNRNA-bacteria with each gRNA as appropriate. Cells were scraped from the plate into fresh medium. The OD600 was measured, and the culture was subsequently diluted to an OD600 0.001 in the presence or absence of G2824, globomycin, or ciprofloxacin. Two hundred microliters was transferred to a 96-well plate (Corning) and monitored for growth by measuring the OD600 (EnVision multimode plate reader; PerkinElmer). All treatments were performed in triplicates. The specificity of CRISPRi downregulation was measured using reverse transcriptase quantitative PCR (RT-qPCR).

MG1655 imp4213 = experiment: Sucrose gradient centrifugation, IM and OM separation; conditions: 1× MIC, 60 min
Method: Bacterial inner and outer membranes were separated by isopycnic sucrose gradient centrifugation as described previously ([75]) and by the Hancock Laboratory (http://cmdr.ubc.ca/bobh/method/outer-membrane-preparation-one-step-sucrose-gradient-procedure/), with some modifications. Briefly, bacteria were grown in Luria broth at 37°C to mid-exponential phase (OD600 of 0.8 to 0.9) and then treated with 1× MIC of designated inhibitors for 1 h. Cells representing equivalents of an OD600 of 10 were harvested by centrifugation at 4,000 × g for 15 min, washed once, and resuspended in cold 10 mM Tris, pH 8.0, containing 20% (wt/vol) sucrose, cOmplete EDTA-free protease inhibitor cocktail (Roche), and 1,000 U/ml nuclease (Benzonase nuclease; EMD Millipore). The cell suspension was disrupted by two passages through an LV1 Microfluidizer (Microfluidics). Unbroken cells were removed by centrifugation at 4,000 × g, and membranes were collected by ultracentrifugation at 100,000 × g for 1 h and washed once with cold 10 mM Tris, pH 8.0. The final membrane preparation was resuspended in 10 mM Tris, pH 8.0, containing 10% sucrose, cOmplete EDTA-free protease inhibitor cocktail (Roche), and 1,000 U/ml nuclease and then applied to the top of the sucrose gradients (73%, 60%, and 20%). The loaded gradients were spun at 39,000 rpm for 22 h at 4°C in a Beckman SW 41 Ti rotor. Fractions were collected from the top and analyzed by SDS-PAGE and immunoblotting with appropriate antibodies.

CFT073 imp4213 Δlpp = experiment: Time-kill, CFT073 imp4213 versus CFT073 imp4213 Δlpp; conditions: 12.5 μM G2824, 3.2 μM globomycin or 1.6 μM vancomycin, CFU, two independent experiments in triplicates
Method: To compare the rate of bactericidal killing of G2824 with that of globomycin, we treated CFT073 imp4213 and CFT073 imp4213 Δlpp cells with G2824 and globomycin at 2× MIC of the respective inhibitors against CFT073 imp4213 and enumerated viable CFU counts.
Unless stated otherwise, E. coli cells were grown in Luria-Bertani (LB) medium (0.5% yeast extract, 1% tryptone, 0.5% NaCl) at 37°C. Where indicated, kanamycin (Kan) was added to culture media at a 50-μg/ml final concentration. MIC assays were performed based on Clinical and Laboratory Standards Institute (CLSI) guidelines. […] Growth of MG1655 inducible deletion strains was measured by culturing in the presence of 2-fold dilutions of arabinose (starting arabinose concentrations for CFT073 and MG1655 inducible deletion strains were 4% and 0.8%, respectively). While 2% arabinose was sufficient for WT growth of MG1655 Δlgt, 4% arabinose was used for CFT073 Δlgt based on comparing its growth to that of WT CFT073 as measured by CFU. OD600 growth measurements were performed using an EnVision 2101 multilabel reader plate reader (PerkinElmer) linked with Echo liquid handler (Labcyte). […] Bacterial viability at different time points during the treatment was measured by enumerating CFU. […]

CFT073 Δlgt = experiment: MIC assay, CFT073 Δlgt, Lgt 0.25% Ara; conditions: Escherichia coli
Method: Unless stated otherwise, E. coli cells were grown in Luria-Bertani (LB) medium (0.5% yeast extract, 1% tryptone, 0.5% NaCl) at 37°C. Where indicated, kanamycin (Kan) was added to culture media at a 50-μg/ml final concentration. MIC assays were performed based on Clinical and Laboratory Standards Institute (CLSI) guidelines. For in vitro growth curves, overnight cultures of WT CFT073, CFT073 Δlgt, and CFT073 Δlgt complemented with lgt from E. coli (lgt^Ec) or P. aeruginosa (lgt^Pa) were grown to mid-exponential phase (optical density at 600 nm [OD600] of 0.6) and then diluted to an OD600 of 0.1 to initiate growth curves. At various times, culture aliquots were diluted and plated in dilutions on LB+Kan agar, and CFU were enumerated in duplicates. Growth of MG1655 inducible deletion strains was measured by culturing in the presence of 2-fold dilutions of arabinose (starting arabinose concentrations for CFT073 and MG1655 inducible deletion strains were 4% and 0.8%, respectively). While […] was sufficient for WT growth of MG1655 Δlgt, 4% arabinose was used for CFT073 Δlgt based on comparing its growth to that of WT CFT073 as measured by CFU. OD600 growth measurements were performed using an EnVision 2101 multilabel reader plate reader (PerkinElmer) linked with Echo liquid handler (Labcyte). For time-kill experiments, bacteria were harvested in mid-exponential phase and treated with 12.5 μM G2824, 3.2 μM globomycin, and 1.6 μM vancomycin. CFU were enumerated at various times posttreatment. Bacterial culture medium containing 2% arabinose was used to induce lpp or lppΔK expression from pBad24 plasmids. Bacterial viability at different time points during the treatment was measured by enumerating CFU. Serum killing assays were carried out as previously described ([17]).

SMILES	levels of PGN-linked Lpp and Pal (CFT073 imp4213)	sensitization by decreased lspA expression (BW25113 cells, lspA gRNA)	IM accumulation of OM lipoproteins and OMPs (MG1655 imp4213)	IM accumulation of PGN-linked Lpp (MG1655 imp4213)	localization of OmpA (MG1655 imp4213)	IM total protein and OM density (MG1655 imp4213; versus untreated)	effect of lpp deletion on bactericidal killing (CFT073 imp4213 Δlpp)	MIC (CFT073 Δlgt)
CCCCCC[C@H]1OC(=O)CNC(=O)[C@H]([C@H](C)O)NC(=O)[C@H](CO)NC(=O)[C@H]([C@H](C)CC)NC(=O)[C@H](CC(C)C)N(C)C(=O)[C@@H]1C [Globomycin]	accumulation of PGN-linked DGPLP (§) and other PGN-linked Lpp forms (†)	enhanced growth inhibition	IM accumulation of OM lipoproteins (Pal and BamB) and OMPs (BamA and OmpA)	significant IM accumulation of PGN-linked Lpp, including DGPLP	mislocalization of the β-barrel protein, OmpA	increases in total protein levels in the IM fraction and a decrease in OM density	lost in the absence of lpp	–
CN[C@H](CC(C)C)C(=O)N[C@H]1C(=O)N[C@@H](CC(N)=O)C(=O)N[C@H]2C(=O)N[C@H]3C(=O)N[C@H](C(=O)N[C@H](C(=O)O)c4cc(O)cc(O)c4-c4cc3ccc4O)[C@H](O)c3ccc(c(Cl)c3)Oc3cc2cc(c3O[C@@H]2O[C@H](CO)[C@@H](O)[C@H](O)[C@H]2O[C@H]2C[C@](C)(N)[C@H](O)[C@H](C)O2)Oc2ccc(cc2Cl)[C@H]1O [Vancomycin]	–	–	–	–	–	–	equivalent killing of CFT073 imp4213 and CFT073 imp4213 Δlpp at 5 h posttreatment	12.5 µM (≈ 18.1 µg/mL)
